This is an account of results in US10080748B2, “Use of flap inhibitors to reduce neuroinflammation mediated injury in the central nervous system” (Bioscience Pharma Partners, LLC, priority 2014, dated 2018).

Experiment [1] deals with rats subjected to FPI (TBI model). The experiment is described as follows: T2-weighted MRI brain swelling (edema) 72 hours after TBI (rat FPI). In kind it is in vivo. The procedure: Craniotomy and lateral fluid percussion injury (FPI) were performed using a previously validated and published procedure. Farias S, et al. J. Neurotraum, 26, 1977-1986, 2009; Frey L. C. et al. J. Neurosci. Methods 177, 267-272, 2009. Throughout the specification animals subjected to this protocol are referred to as having a TBI since this treatment protocol is a TBI model. Briefly, rats were anesthetized with 3-5% isoflurane, isosol, VEDCO Inc., St. Joseph, Mo., via nose cone and mounted in a stereotaxic head frame. A 3 millimeter (mm) craniotomy was created and centered at 3 mm caudal to bregma and 3.5 mm left of the sagittal suture, keeping the exposed dura intact. One steel support screw was embedded in the skull on the contralateral side. […] Moistened food pellets were provided after injury, and all animals were monitored daily for well-being and weight changes. […]
For each rat, five slices, 1.2 mm thick, spanning the entire area of injury were used to calculate FPI-related brain swelling. The diameter of the injured, ipsilateral hemisphere was measured from midline to the widest point of the cortex (Fiji/ImageJ, NIH). The difference between the ipsilateral (ipsi) and contralateral (contra) hemisphere diameters was then calculated and normalized to the diameter of the contralateral hemisphere using the formula: {(diameter Ipsi−diameter Contra)/diameter Contra}×100 […]

Experiment [2] has the same test system. The experiment in a line: Radial arms water maze (RAWM) after TBI (rat FPI). In kind it is in vivo. On the procedure:
Craniotomy and lateral fluid percussion injury (FPI) were performed using a previously validated and published procedure. Farias S, et al. J. Neurotraum, 26, 1977-1986, 2009; Frey L. C. et al. J. Neurosci. Methods 177, 267-272, 2009. Throughout the specification animals subjected to this protocol are referred to as having a TBI since this treatment protocol is a TBI model. Briefly, rats were anesthetized with 3-5% isoflurane, isosol, VEDCO Inc., St. Joseph, Mo., via nose cone and mounted in a stereotaxic head frame. A 3 millimeter (mm) craniotomy was created and centered at 3 mm caudal to bregma and 3.5 mm left of the sagittal suture, keeping the exposed dura intact. One steel support screw was embedded in the skull on the contralateral side. A Luer-Lock hub with an inside diameter of 3.5 mm was centered over the craniotomy and bonded to the skull with cyanoacrylate adhesive and capped. Dental acrylic, Snap, Parka, Inc., Edgewood, N.J., was poured around the huh and screw. After the acrylic hardened antibiotic ointment was applied around the cap and the animals were returned to their cages. The next day, approximately 15-20 hours later, animals were anesthetized with isoflurane in an induction chamber, immediately connected to the FPI apparatus, and received a 20 millisecond (ms) pulse of pressurized sterile saline at 2.7 atmospheres (atm) of pressure to simulate a moderate severity impact on the intact dural surface through the craniotomy before awakening from anesthesia. […] All animals received a subcutaneous injection of the analgesic, buprenorphine, 0.05 milligram/kilogram (mg/kg) Buprenex, prior to craniotomy, and subsequent injections every 12 hours for two days. Moistened food pellets were provided after injury, and all animals were monitored daily for well-being and weight changes.
The indole FLAP inhibitor MK-886 was prepared at a dose of 2.5 milligram/milliliter (mg/ml), dissolved in dimethyl sulfoxide (DMSO) and then diluted with 0.9% saline to 10% DMSO. The rats were briefly anesthetized with 3-3.5% isoflurane and either […] at a dose of 6 mg/kg or vehicle was administered intravenously (IV) by tail vein injection. […]
The radial arms water maze (RAWM) consists of six 50 centimeter (cm) radial arms emanating from a circular area in a 160 cm diameter tank of 20.5° C. water, surrounded by 4 walls, each with a unique pattern. […] The start arm for each trial was determined in a pseudorandom fashion with three randomized sequences of the live non-goal arms. […] Videos for each of the 30 trials per animal were analyzed using Topscan (Cleversys Inc.) tracking software for errors and perseverance duration. […]
All data shown are mean+/−standard error of the mean unless otherwise noted. Results were analyzed in SPSS 20 (IBM) or Prism 5.0 (GraphPad). […]

Another experiment deals with human whole blood. The experiment is described as follows: Human whole blood bioassay of LTB4, 5-HETE and AA production. It counts as cell-based. The conditions noted are these: human whole blood; data not shown. The source says:
The results are for the effects of these two FLAP inhibitors on LTB4 production and 5-HETE production. It is known that indole-acetic acid FLAP inhibitors like MK-886, MK-591 display high plasma protein binding. Thus, the potencies of these FLAP inhibitors for blocking leukotrienes in vivo are about 100 fold higher than the affinity of the inhibitors for FLAP binding. The inventors developed a bioassay that closely predicts the in vivo potency of FLAP inhibitors using human whole blood. Briefly, whole blood is incubated with a calcium ionophore like […] or zymosan in the absence or presence of increasing concentrations of a FLAP inhibitor. After incubation at 37° C. for 30 minutes, the samples are centrifuged and the plasma supernatant is subjected to reverse phase liquid chromatography coupled to tandem mass spectrometry to quantify levels of LTB4, 5-HETE, and AA production. Drug IC50 values are determined by non-linear regression analysis (GraphPad Prism).). […] As FLAP inhibitors are poorly water soluble drugs, the inventors have shown that such hydrophobic drugs can be formulated in a carrier comprising one or more vegetable oils, such as olive oil, and phosphatidylserine that are found on the Generally Accepted as Safe (GRAS) list and that such drugs can then be rapidly delivered and targeted to the brain and upper spinal cord. Hanson L R, et al, Drug Delivery 19(3):149-54, 2012.

`CC(C)c1ccc2c(c1)c(SC(C)(C)C)c(CC(C)(C)C(=O)O)n2Cc1ccc(Cl)cc1` [MK-886, 1-[(4-Chlorophenyl)methyl]-3-[(1,1-dimethylethyl)thio]-α,α-dimethyl-5-(1-methylethyl)-1H-Indole-2-propanoic acid]: the normalized brain swelling in experiment [1] (30 minutes pre-TBI) is given as 4.12+/−0.08%; in experiment [1] (60 minutes post-TBI), 8.98+/−1.0%. Moreover, the “initial task learning versus vehicle” value in experiment [2] (Day 1, 15 swim trials, within sham group or within TBI group) is recorded as “no significant differences”. The “errors per swim, last five swim trials of the reversal task” value is 1.26+/−0.700 in experiment [2] (TBI animals, injection 30 minutes post-injury, Day 2) and 0.850+/−0.583 in experiment [2] (sham animals, injection 30 minutes post-injury, Day 2). In experiment [2] (TBI rats, injection 30 minutes post-injury, Day 2), the “perseverance for the previous goal arm, swim 1 to swim 3 of reversal task” value is recorded as “spent less time in the previous goal arm by swim 3”. Further, the AA production entry with human whole blood is reported as “neither of the FLAP inhibitors effected AA production”.
